Assay results from ChEMBL document CHEMBL1144037, “Structural requirements for the stability of novel cephalosporins to AmpC beta-lactamase based on 3D-structure” (2008).
≈ marks a conversion by molar mass, not a printed value.

Tests used:
Format in all cases: functional
[1] = test system: Pseudomonas aeruginosa; assay: Antibacterial activity against Pseudomonas aeruginosa PAO1 ampD-deffective mutant after 18 hrs by agar dilution method; conditions: PAO1, 18 h
[2] = test system: Pseudomonas aeruginosa; assay: Antibacterial activity against Pseudomonas aeruginosa PAO1 after 18 hrs by agar dilution method; conditions: PAO1, 18 h
[3] = test system: Pseudomonas aeruginosa; assay: Antibacterial activity against Pseudomonas aeruginosa FP1380 after 18 hrs by agar dilution method; conditions: FP1380, 18 h

Structure (SMILES) | MIC [1] [µg/mL] | MIC [2] [µg/mL] | MIC [3] [µg/mL]
CCCc1c[n+](CC2=C(C(=O)[O-])N3C(=O)[C@@H](NC(=O)/C(=N\OC(C)(C)C(=O)O)c4nsc(N)n4)[C@H]3SC2)n(C)c1N | 1 (≈ 1.65 µM) | 2 (≈ 3.29 µM) | –
Cn1c(N)c(CCCCCN)c[n+]1CC1=C(C(=O)[O-])N2C(=O)[C@@H](NC(=O)/C(=N\OC(C)(C)C(=O)O)c3nsc(N)n3)[C@H]2SC1 | 1 (≈ 1.54 µM) | 2 (≈ 3.07 µM) | –
Cn1c(N)c(N)c[n+]1CC1=C(C(=O)[O-])N2C(=O)[C@@H](NC(=O)/C(=N\OC(C)(C)C(=O)O)c3nsc(N)n3)[C@H]2SC1 | 0.5 (≈ 0.861 µM) | 4 (≈ 6.89 µM) | –
Cn1c(N)c(CCCCN)c[n+]1CC1=C(C(=O)[O-])N2C(=O)[C@@H](NC(=O)/C(=N\OC(C)(C)C(=O)O)c3nsc(N)n3)[C@H]2SC1 | 0.5 (≈ 0.785 µM) | 1 (≈ 1.57 µM) | –
Cn1c(CCN)cc[n+]1CC1=C(C(=O)[O-])N2C(=O)[C@@H](NC(=O)/C(=N\OC(C)(C)C(=O)O)c3nsc(N)n3)[C@H]2SC1.O=S(=O)(O)O | 0.5 | 1 | –
Cn1c(N)c(CN)c[n+]1CC1=C(C(=O)[O-])N2C(=O)[C@@H](NC(=O)/C(=N\OC(C)(C)C(=O)O)c3nsc(N)n3)[C@H]2SC1 | 0.5 (≈ 0.841 µM) | 4 (≈ 6.73 µM) | –
CC(C)(O/N=C(\C(=O)N[C@@H]1C(=O)N2C(C(=O)[O-])=C(C[n+]3ccc(N)n3CCO)CS[C@H]12)c1nsc(N)n1)C(=O)O.Cl | 4 | 0.5 | 16
CC(C)(O/N=C(\C(=O)N[C@@H]1C(=O)N2C(C(=O)[O-])=C(C[n+]3ccccc3)CS[C@H]12)c1csc(N)n1)C(=O)O [CEFTAZIDIME] | – | – | 128 (≈ 234 µM)
